Measured values published in ChEMBL document CHEMBL4825755 (J Med Chem, 2021).

Columns and labels:
[1] = molecular target: Phosphatidylinositol 4,5-bisphosphate 3-kinase catalytic subunit gamma isoform (Homo sapiens, UniProt P48736); assay: Inhibition of recombinant human N-terminal His6-tagged full length P120gamma expressed in baculovirus infected Sf21 insect cells using PIP2 as substrate preincubated for 15 mins followed by substrate addition and measured after 60 mins by HTRF assay
[2] = molecular target: PI3-kinase p110-delta/p85-alpha (Homo sapiens, UniProt O00329); assay: Inhibition of recombinant human N-terminal His6-tagged full length P110delta/full length untagged human p85alpha expressed in baculovirus infected Sf21 insect cells using PIP2 as substrate preincubated for 15 mins followed by substrate addition and measured after 60 mins by HTRF assay
Sequence of PI3-kinase p110-delta/p85-alpha (P27986 whole entry, one chain of several): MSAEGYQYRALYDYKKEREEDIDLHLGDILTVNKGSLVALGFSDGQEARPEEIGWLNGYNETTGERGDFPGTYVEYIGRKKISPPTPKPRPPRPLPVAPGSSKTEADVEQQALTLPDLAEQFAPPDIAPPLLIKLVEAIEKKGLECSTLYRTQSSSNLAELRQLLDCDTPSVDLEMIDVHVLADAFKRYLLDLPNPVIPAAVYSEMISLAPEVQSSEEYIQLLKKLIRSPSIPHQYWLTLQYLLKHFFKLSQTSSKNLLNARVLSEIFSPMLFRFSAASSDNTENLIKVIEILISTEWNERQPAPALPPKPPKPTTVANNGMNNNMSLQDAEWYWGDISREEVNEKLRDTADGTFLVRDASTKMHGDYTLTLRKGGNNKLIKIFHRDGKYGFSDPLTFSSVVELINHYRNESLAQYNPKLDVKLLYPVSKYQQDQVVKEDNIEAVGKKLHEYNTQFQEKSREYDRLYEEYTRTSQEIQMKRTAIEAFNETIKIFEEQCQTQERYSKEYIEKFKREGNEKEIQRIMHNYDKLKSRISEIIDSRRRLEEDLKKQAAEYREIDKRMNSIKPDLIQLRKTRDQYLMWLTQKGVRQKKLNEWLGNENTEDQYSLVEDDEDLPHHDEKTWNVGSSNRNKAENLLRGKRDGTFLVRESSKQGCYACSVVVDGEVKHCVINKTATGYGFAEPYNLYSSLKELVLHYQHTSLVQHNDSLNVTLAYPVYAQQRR

PI3K p110 beta/p85 alpha = PI3K p110 beta/p85 alpha (Homo sapiens, UniProt P42338); assay: Inhibition of recombinant human N-terminal His6-tagged full length P110beta/full length untagged human p85alpha expressed in baculovirus infected Sf21 insect cells using PIP2 as substrate preincubated for 15 mins followed by substrate addition and measured after 60 mins by HTRF assay
Sequence of PI3K p110 beta/p85 alpha (P27986 whole entry): as the sequence (P27986 whole entry, one chain of several) above
Sequence of PI3K p110 beta/p85 alpha (P42338 whole entry): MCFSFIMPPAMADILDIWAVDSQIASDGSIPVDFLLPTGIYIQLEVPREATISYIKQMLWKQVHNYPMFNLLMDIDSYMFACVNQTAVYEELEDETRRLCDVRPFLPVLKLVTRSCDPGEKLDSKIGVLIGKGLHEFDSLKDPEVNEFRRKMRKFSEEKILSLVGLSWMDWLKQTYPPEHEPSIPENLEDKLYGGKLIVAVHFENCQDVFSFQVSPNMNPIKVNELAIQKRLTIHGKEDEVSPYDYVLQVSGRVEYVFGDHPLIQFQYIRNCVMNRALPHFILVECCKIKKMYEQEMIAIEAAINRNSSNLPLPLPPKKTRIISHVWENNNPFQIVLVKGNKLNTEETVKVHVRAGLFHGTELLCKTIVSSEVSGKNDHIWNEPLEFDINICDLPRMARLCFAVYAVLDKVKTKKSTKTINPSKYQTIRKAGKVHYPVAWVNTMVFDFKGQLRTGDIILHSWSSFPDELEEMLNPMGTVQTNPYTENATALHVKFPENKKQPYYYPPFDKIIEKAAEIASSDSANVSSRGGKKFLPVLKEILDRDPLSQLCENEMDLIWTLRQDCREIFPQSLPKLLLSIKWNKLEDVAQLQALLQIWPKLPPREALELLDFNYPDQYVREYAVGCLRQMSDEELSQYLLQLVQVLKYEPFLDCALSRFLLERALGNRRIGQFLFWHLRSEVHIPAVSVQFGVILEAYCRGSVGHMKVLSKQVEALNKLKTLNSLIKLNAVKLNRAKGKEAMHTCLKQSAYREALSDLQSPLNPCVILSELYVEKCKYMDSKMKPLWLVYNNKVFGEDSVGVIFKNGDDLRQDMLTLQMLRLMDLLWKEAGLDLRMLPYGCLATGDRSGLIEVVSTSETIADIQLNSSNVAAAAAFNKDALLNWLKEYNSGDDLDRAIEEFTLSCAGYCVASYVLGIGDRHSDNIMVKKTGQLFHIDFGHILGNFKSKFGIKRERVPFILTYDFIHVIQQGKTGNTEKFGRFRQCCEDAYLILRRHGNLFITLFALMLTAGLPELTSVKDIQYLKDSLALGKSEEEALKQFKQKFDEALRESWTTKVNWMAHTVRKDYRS

[3] = Lipophilicity, log D of compound by chromatographic method; type: physicochemical
[4] = molecular target: T1, Phosphatidylinositol 4,5-bisphosphate 3-kinase catalytic subunit delta isoform (Homo sapiens, UniProt O00329); assay: Inhibition of PI3Kdelta in human whole blood assessed as reduction in cytostim-stimulated IFNgamma production preincubated for 1 hr followed by cytostim stimulation and measured after 20 hrs by electrochemiluminescence assay
T1 sequence (O00329 whole entry): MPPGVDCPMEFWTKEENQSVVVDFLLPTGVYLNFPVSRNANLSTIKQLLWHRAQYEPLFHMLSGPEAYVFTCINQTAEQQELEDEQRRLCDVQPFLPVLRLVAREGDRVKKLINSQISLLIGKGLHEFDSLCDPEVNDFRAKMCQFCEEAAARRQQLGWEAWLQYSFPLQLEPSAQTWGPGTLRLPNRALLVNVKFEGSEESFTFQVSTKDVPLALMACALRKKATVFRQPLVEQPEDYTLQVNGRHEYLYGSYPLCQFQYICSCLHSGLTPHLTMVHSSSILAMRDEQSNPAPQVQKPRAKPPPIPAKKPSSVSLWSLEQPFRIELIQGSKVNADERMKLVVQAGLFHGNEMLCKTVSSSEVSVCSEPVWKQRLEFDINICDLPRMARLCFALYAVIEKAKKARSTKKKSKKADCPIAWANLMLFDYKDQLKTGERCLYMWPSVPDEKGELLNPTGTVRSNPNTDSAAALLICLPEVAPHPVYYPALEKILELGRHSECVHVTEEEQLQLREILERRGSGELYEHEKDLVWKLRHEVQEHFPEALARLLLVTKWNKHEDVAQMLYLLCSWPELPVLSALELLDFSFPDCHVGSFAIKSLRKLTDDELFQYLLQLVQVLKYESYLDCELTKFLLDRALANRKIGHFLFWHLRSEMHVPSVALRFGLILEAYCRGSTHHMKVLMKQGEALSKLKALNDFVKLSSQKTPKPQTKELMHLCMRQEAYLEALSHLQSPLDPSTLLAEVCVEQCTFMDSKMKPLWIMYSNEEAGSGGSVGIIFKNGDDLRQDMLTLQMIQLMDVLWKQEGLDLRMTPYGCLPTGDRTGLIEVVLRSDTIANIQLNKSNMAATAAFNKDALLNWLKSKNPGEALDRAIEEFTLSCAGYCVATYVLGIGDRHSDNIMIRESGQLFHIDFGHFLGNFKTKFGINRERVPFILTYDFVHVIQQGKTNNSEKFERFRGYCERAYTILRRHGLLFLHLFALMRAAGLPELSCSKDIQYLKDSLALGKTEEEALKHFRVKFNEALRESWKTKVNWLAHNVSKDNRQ

[5] = molecular target: PI3-kinase p110-alpha/p85-alpha (Homo sapiens, UniProt P42336); assay: Inhibition of recombinant human N-terminal His6-tagged full length P110alpha/full length untagged human p85alpha expressed in baculovirus infected Sf21 insect cells using PIP2 as substrate preincubated for 15 mins followed by substrate addition and measured after 60 mins by HTRF assay
Sequence of PI3-kinase p110-alpha/p85-alpha (P27986 whole entry): as the sequence (P27986 whole entry, one chain of several) above
Sequence of PI3-kinase p110-alpha/p85-alpha (P42336 whole entry): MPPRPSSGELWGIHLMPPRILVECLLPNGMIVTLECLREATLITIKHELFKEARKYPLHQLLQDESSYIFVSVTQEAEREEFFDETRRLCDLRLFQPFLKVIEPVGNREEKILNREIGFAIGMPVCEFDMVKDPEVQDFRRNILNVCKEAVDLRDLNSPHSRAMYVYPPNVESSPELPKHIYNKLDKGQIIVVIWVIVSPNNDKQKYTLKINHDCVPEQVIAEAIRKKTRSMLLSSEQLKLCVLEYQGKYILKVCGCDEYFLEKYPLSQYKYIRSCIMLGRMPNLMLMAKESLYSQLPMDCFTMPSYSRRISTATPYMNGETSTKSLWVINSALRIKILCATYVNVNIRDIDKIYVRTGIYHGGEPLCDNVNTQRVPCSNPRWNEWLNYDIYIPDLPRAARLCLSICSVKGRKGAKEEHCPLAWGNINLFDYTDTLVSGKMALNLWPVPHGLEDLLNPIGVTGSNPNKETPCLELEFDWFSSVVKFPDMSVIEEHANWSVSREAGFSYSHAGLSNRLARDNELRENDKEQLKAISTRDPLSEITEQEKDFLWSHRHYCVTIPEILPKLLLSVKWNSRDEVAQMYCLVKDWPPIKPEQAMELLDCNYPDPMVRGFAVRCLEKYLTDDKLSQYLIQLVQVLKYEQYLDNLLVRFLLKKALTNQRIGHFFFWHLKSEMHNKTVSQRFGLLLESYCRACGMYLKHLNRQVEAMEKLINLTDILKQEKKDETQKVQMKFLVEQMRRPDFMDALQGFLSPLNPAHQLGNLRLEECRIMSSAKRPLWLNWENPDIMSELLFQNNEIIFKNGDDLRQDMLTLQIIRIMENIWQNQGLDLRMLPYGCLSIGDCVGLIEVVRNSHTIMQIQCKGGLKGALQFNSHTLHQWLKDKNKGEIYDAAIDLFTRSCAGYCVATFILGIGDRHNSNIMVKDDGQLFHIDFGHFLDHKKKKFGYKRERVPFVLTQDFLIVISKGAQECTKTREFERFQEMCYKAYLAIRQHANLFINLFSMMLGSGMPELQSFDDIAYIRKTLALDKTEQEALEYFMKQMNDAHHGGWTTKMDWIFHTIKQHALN

[6] = Intrinsic clearance in Wistar Han rat liver microsomes at 0.5 uM measured up to 45 mins in presence of NADPH by LC-MS/MS analysis; type: ADME, Microsome; conditions: read-out: CLH
in vitro = conditions: human, pooled liver microsomes
Description: Intrinsic clearance in pooled human liver microsomes at 0.5 uM measured up to 45 mins in presence of NADPH by LC-MS/MS analysis

Sequence of Phosphatidylinositol 4,5-bisphosphate 3-kinase catalytic subunit gamma isoform (P48736 whole entry, canonical isoform): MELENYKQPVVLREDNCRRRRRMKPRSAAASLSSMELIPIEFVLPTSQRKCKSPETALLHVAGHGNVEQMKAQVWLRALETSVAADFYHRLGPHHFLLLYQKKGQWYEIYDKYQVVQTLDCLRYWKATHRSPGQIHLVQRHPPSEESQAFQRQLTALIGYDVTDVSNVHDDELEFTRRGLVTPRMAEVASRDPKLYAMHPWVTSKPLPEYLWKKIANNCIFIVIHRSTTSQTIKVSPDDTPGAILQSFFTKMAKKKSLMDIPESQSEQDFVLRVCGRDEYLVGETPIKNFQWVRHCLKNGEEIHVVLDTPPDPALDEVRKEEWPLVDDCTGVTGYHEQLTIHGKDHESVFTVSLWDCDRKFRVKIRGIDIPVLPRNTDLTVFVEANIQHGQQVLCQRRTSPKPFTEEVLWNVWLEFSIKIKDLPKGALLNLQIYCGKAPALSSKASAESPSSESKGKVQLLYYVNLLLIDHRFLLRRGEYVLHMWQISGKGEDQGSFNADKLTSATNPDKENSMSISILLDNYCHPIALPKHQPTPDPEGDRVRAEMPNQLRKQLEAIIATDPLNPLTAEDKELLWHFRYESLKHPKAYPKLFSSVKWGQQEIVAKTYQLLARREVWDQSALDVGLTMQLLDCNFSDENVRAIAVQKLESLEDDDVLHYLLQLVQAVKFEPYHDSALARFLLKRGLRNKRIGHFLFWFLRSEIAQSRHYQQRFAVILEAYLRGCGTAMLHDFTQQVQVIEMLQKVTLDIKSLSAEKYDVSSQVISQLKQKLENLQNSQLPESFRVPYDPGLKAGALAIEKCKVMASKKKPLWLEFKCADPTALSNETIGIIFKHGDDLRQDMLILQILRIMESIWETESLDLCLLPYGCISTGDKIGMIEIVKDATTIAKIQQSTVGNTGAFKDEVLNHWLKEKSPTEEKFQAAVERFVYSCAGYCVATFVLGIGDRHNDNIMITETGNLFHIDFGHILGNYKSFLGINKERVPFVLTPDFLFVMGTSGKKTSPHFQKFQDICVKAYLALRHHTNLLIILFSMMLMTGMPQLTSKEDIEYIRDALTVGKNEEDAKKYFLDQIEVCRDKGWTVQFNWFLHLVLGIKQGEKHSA

Structure (SMILES) | IC50 [1] [nM] | IC50 [2] [nM] | IC50 (PI3K p110 beta/p85 alpha) [nM] | chromatographic logD [3] | IC50 [4] [nM] | IC50 [5] [nM] | Ki [2] [nM] | CLint scaled at 0.5 µM [6] [mL/min/kg] | CLint scaled at 0.75 h, 0.5 µM (in vitro) [mL/min/kg] | pIC50 ([1]; sf21)
COc1ncc(C2=CCOCC2)cc1S(=O)(=O)Nc1cncc(-c2ccc(N3CCN(C(C)C)CC3)cc2)c1 | 7940 | 3.16 | 316 | 3.8 | 50.1 | 316 | – | – | – | –
COc1ncc(C2=CCOCC2)cc1S(=O)(=O)Nc1cncc(-c2ccc(CN3CCNCC3)cc2)c1 | 7940 | 3.16 | 794 | 3.3 | 12.6 | 3160 | 0.126 | 3.18 | 2.21 | –
COc1ncc(C2=CCOCC2)cc1S(=O)(=O)Nc1ccccc1 | 7940 | 200 | 2510 | – | 3980 | 3980 | – | – | – | –
COc1ncc(N2CCOCC2)cc1S(=O)(=O)Nc1cncc(-c2ccc(CN3CCN(C(C)C)CC3)cc2F)c1 [listing 1 of 2 here] | – | – | – | – | 3.16 | – | – | – | – | –
COc1ncc(C2=CCOCC2)cc1S(=O)(=O)Nc1cncc(-c2ccc(CN3CCCCC3)s2)c1 | 1580 | 2.51 | 100 | 4.7 | 31.6 | 1580 | – | – | – | –
COc1ncc(N2CCOCC2)cc1S(=O)(=O)Nc1ccnc(-c2ccc(CN3CCN(C(C)C)CC3)cc2)c1 | 5010 | 1.26 | 10000 | 1.4 | 12.6 | 2510 | 0.0398 | < 0.46 | < 0.4 | –
COc1ncc(N2CCOCC2)cc1S(=O)(=O)Nc1ccnc(-c2ccc(CN3CCN(C(C)(C)C)CC3)cc2F)c1 | 2000 | 0.794 | 3980 | 1.9 | 2.51 | 794 | 0.0251 | < 0.37 | < 0.31 | –
COc1ncc(N2CCOCC2)cc1S(=O)(=O)Nc1ccnc(-c2ccc(CN3CCN(C(C)(C)C)CC3)cc2)c1 [listing 1 of 2 here] | 3980 | – | 6310 | – | – | 1580 | – | – | – | –
COc1ncc(C2=CCOCC2)cc1S(=O)(=O)Nc1cncc(-c2ccc(CN3C[C@@H](C)O[C@@H](C)C3)cc2)c1 | 794 | 0.398 | 631 | 5.3 | 25.1 | 1000 | 0.01 | 18.9 | 12.9 | –
COc1ncc(N2CCOCC2)cc1S(=O)(=O)Nc1ccnc(-c2ccc(CN3CCN(C(C)C)CC3)c(F)c2F)c1 [listing 1 of 2 here] | 2000 | – | – | – | – | – | – | – | – | –
COc1ncc(C2=CCOCC2)cc1S(=O)(=O)Nc1cncc(C2CC2CN(C)C)c1 (stereo not given) | 7940 | 126 | 1260 | 1.2 | – | 6310 | – | – | – | –
COc1ncc(N2CCOCC2)cc1S(=O)(=O)Nc1cncc(-c2ccc(CN3CCN(C(C)C)CC3)cc2F)c1 [listing 2 of 2 here] | 2510 | 1.26 | 3980 | 2.6 | – | 501 | – | < 0.46 | 0.65 | –
COc1ncc(N2CCOCC2)cc1S(=O)(=O)Nc1cncc(-c2ccc(CN3CCCC3)cc2)c1 [listing 1 of 2 here] | – | 20 | 2000 | 1.9 | 79.4 | 5010 | – | < 0.46 | < 0.4 | –
COc1ncc(N2CCOCC2)cc1S(=O)(=O)Nc1cncc(C#CCN2CCN(C(C)C)CC2)c1 | – | 31.6 | 15800 | 1.6 | 158 | 20000 | – | < 0.46 | < 0.4 | > 4.5
COc1ncc(N2CCOCC2)cc1S(=O)(=O)Nc1ccnc(-c2ccc(CN3CCN(C(C)C)CC3)c(F)c2F)c1 [listing 2 of 2 here] | – | 1.58 | 5010 | 2.2 | 3.16 | 1260 | 0.0631 | < 0.46 | 0.47 | –
COc1ncc(C2=CCOCC2)cc1S(=O)(=O)Nc1cncc(-c2cccc(CN3CCCCC3)c2)c1 | 6310 | 5.01 | 1260 | 3.5 | 79.4 | 5010 | – | 3.98 | 1.88 | –
COc1ncc(C2=CCOCC2)cc1S(=O)(=O)Nc1cncc(C2=CCN(C)CC2)c1 | 5010 | 316 | 5010 | 1.5 | – | 20000 | – | – | – | –
COc1ncc(C2=CCOCC2)cc1S(=O)(=O)Nc1cncc(-c2ccc(CN3CCCC3)cc2)c1 | 10000 | 5.01 | 631 | 2.2 | 31.6 | 5010 | – | 0.88 | 0.72 | –
COc1ncc(N2CCOCC2)cc1S(=O)(=O)Nc1ccnc(-c2ccc(CN3CCN(C(C)(C)C)CC3)cc2)c1 [listing 2 of 2 here] | – | 0.794 | – | 1.3 | 7.94 | – | 0.0251 | < 0.46 | < 0.4 | –
COc1ncc(N2CCOCC2)cc1S(=O)(=O)Nc1cncc(-c2ccc(CN3CCCC3)cc2)c1 [listing 2 of 2 here] | 10000 | – | – | – | – | – | – | – | – | –
COc1ncc(N2CCOCC2)cc1S(=O)(=O)Nc1cncc(-c2ccc(CN3CCCC3)c(F)c2)c1 | 10000 | 12.6 | 2510 | 2.2 | 63.1 | 3980 | – | < 0.46 | < 0.4 | –
COc1ncc(N2CCOCC2)cc1S(=O)(=O)Nc1ccnc(-c2ccc(CN3CCC(C(C)(C)O)CC3)cc2F)c1 | 3160 | 1.58 | 2510 | 2.1 | 10 | 2510 | 0.0501 | < 0.46 | < 0.4 | –
COc1ncc(C2=CCOCC2)cc1S(=O)(=O)Nc1cncc(-c2cccc(CN3CCCC3)c2)c1 | 3980 | 6.31 | 794 | 2.4 | 200 | 5010 | – | 1.1 | 0.71 | –
COc1ncc(N2CCOCC2)cc1S(=O)(=O)Nc1ccnc(-c2ccc(CN3C[C@@H](C)O[C@@H](C)C3)cc2F)c1 | 251 | 1 | 1580 | 3.9 | 7.94 | 1260 | 0.0316 | 0.59 | 0.87 | –
COc1ncc(C2=CCOCC2)cc1S(=O)(=O)Nc1cncc(C#CCN2C[C@@H](C)O[C@@H](C)C2)c1 | 5010 | 3.98 | 5010 | 3.6 | – | 6310 | – | 5.59 | 3.64 | –
COc1ncc(N2CCOCC2)cc1S(=O)(=O)Nc1ccnc(-c2ccc(CN3CCN(C(C)C)CC3)c(F)c2)c1 | 3980 | 1.58 | 7940 | 1.8 | 3.16 | 1580 | 0.0501 | < 0.46 | < 0.4 | –
COc1ncc(C2=CCOCC2)cc1S(=O)(=O)Nc1cncc(-c2ccc(CN3CCN(C(C)C)CC3)cc2)c1 | 2510 | 0.316 | 794 | 2.9 | 12.6 | 398 | 0.01 | 0.61 | 2.28 | –
